In PubChem BioAssay (NCI):
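Exposure lasted 48 hours, with cells grown in 96-well plates and compounds tested at five concentrations. TGI is the concentration that stops growth completely.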

How the values were obtained:
Test in all cases: DTP human tumour cell line panel, 48 h
OVCAR-3 ovarian = tested on: OVCAR-3 ovarian
T-47D breast = tested on: T-47D breast
SN12C renal = tested on: SN12C renal
RPMI-8226 leukemia = tested on: RPMI-8226 leukemia
HT29 colon = tested on: HT29 colon
SK-MEL-28 melanoma = tested on: SK-MEL-28 melanoma
RXF 393 renal = tested on: RXF 393 renal
SF-539 CNS = tested on: SF-539 CNS
DU-145 prostate = tested on: DU-145 prostate
BT-549 breast = tested on: BT-549 breast
SF-268 CNS = tested on: SF-268 CNS
SF-295 CNS = tested on: SF-295 CNS
K-562 leukemia = tested on: K-562 leukemia
SNB-19 CNS = tested on: SNB-19 CNS
OVCAR-8 ovarian = tested on: OVCAR-8 ovarian
UACC-257 melanoma = tested on: UACC-257 melanoma
U251 CNS = tested on: U251 CNS
KM12 colon = tested on: KM12 colon
SW-620 colon = tested on: SW-620 colon
MALME-3M melanoma = tested on: MALME-3M melanoma

Compound | TGI (OVCAR-3 ovarian) [µM] | TGI (T-47D breast) [µM] | TGI (SN12C renal) [µM] | TGI (RPMI-8226 leukemia) [µM] | TGI (HT29 colon) [µM] | TGI (SK-MEL-28 melanoma) [µM] | TGI (RXF 393 renal) [µM] | TGI (SF-539 CNS) [µM] | TGI (DU-145 prostate) [µM] | TGI (BT-549 breast) [µM] | TGI (SF-268 CNS) [µM] | TGI (SF-295 CNS) [µM] | TGI (K-562 leukemia) [µM] | TGI (SNB-19 CNS) [µM] | TGI (OVCAR-8 ovarian) [µM] | TGI (UACC-257 melanoma) [µM] | TGI (U251 CNS) [µM] | TGI (KM12 colon) [µM] | TGI (SW-620 colon) [µM] | TGI (MALME-3M melanoma) [µM]
CC(CC[C@@H](O)C(C)(C)O)C1[C@@H](O)CC2(C)C3CC(O)C4C(C)(C)[C@@H](OC5OC(CO)C(O)C(O)C5O)CC[C@@]45C[C@@]35CC[C@]12C (some centres not stated) | > 10 | > 10 | > 10 | > 10 | > 10 | > 10 | > 10 | > 10 | > 10 | > 10 | > 10 | > 10 | > 10 | > 10 | > 10 | > 10 | > 10 | > 10 | > 10 | > 10
COc1c2cc(C(C)(C)C)cc1Cc1cccc(c1OCc1cccc([N+](=O)[O-])c1)Cc1cc(C(C)(C)C)cc(c1OC)Cc1cccc(c1OCc1cccc([N+](=O)[O-])c1)Cc1cc(C(C)(C)C)cc(c1OC)Cc1cccc(c1OCc1cccc([N+](=O)[O-])c1)C2 | > 50 | > 50 | > 50 | > 50 | > 50 | > 50 | > 50 | > 50 | > 50 | > 50 | > 50 | > 50 | > 50 | > 50 | > 50 | > 50 | > 50 | > 50 | > 50 | > 50
CN1CCc2c3n(c4cc(Br)ccc24)[C@H](O)CCCC31 (some centres not stated) | > 10 | > 10 | > 10 | 5.36 | 3.28 | 3.19 | 7.74 | 3.5 | > 10 | > 10 | > 10 | 3.53 | 1.88 | > 10 | 3.43 | 5.61 | 3.35 | 5.32 | 3.47 | 4.63
O=c1cc(-c2ccccc2)[nH]c2ccc(N3CCOCC3)cc12 | 39.2 | > 100 | > 95.3 | > 100 |  | 44.7 | 46.5 | 0.615 | > 32.9 | > 100 | 15.8 | 0.0773 | > 100 | > 87.5 | > 100 | > 100 | > 35.8 | 0.446 | > 100 | > 100
S=c1nc(N2CCCCC2)c2cn[nH]c2[nH]1 | > 100 | > 100 | > 100 | > 100 | > 100 | > 100 | > 100 | > 100 | > 100 | > 100 | > 100 | > 100 | > 100 | > 100 | > 100 | > 100 | > 100 | > 100 | > 100 | > 100
CN(Cc1ccccc1)C(=NC#N)N(Cc1ccccc1)Cc1ccccc1 | 44.7 | > 100 | > 92.9 | 55.4 | 36.3 | 83.1 | 95.9 | 39.7 | > 100 | 49.6 | > 100 | 47.4 | > 100 | > 100 | > 100 | 54.4 | 96.9 | 44.4 | > 100 | 67.1
CC1(C)CC(C2=NCCO2)CC(C)(C)N1 | > 100 | > 100 | > 100 | > 100 | > 100 | > 100 | > 100 | > 100 | > 100 | > 100 | > 100 | > 100 | > 100 | > 100 | > 100 | > 100 | > 100 |  |  | > 100
O=NN1C(c2ccccc2)CC(=NO)CC1c1ccccc1 (configuration not stated) | > 100 | > 100 | > 100 | > 100 | > 100 | > 100 | > 100 | > 100 | > 100 | > 100 | > 100 | > 100 | > 100 | > 100 | > 100 | > 100 | > 100 | > 100 | > 100 | > 100
CCc1cccc(C(C)(C)C)c1NC(=S)N/C=C(/C#N)C(N)=O | > 100 | > 100 | > 100 | > 100 | > 100 | > 100 | > 100 | > 100 | > 100 | > 100 | > 100 | > 100 | > 100 | > 100 | > 100 | > 100 | > 100 | > 100 | > 100 | > 100
CC1CCC2(O)C3(C)CC4(O)OC2(C1O)C1(O)C3(O)C(OC(=O)c2ccc[nH]2)C(O)(C(C)C)C41C (configuration not stated) | > 100 | > 100 | > 100 | > 100 | > 100 | > 100 | > 100 | > 100 | > 100 | > 100 | > 31.6 | > 100 | > 100 | > 100 | > 100 | > 100 | > 100 | > 100 | > 100 | > 100
O=C1Nc2ccccc2C1=Nc1cccc2ncccc12 | > 100 | > 100 | > 100 | > 100 | > 100 | > 100 | > 100 | > 100 | > 100 | > 100 | > 100 | > 100 | > 100 | > 100 | > 100 | > 100 | > 100 | > 100 | > 100 | > 100
COc1cc(C=O)cc(/C=N/n2c3ccccc3c3ccccc32)c1O | > 100 | > 100 | > 100 | 46.2 | > 100 | > 100 | 99.7 | > 100 | > 100 | 9.7 | > 100 | 18.6 | 67.7 | > 100 | > 100 | > 100 | > 100 | > 100 | > 100 | > 100
